Experimental data published in US20160137639A1, “TRIAZOLE-ISOXAZOLE COMPOUND AND MEDICAL USE THEREOF” (JAPAN TOBACCO INC., priority 2012, published 2016).
Read-outs that look alike come from different tables or passages of the source.

Experiments:
human RORγ = target: T1, human RORγ (Homo sapiens, UniProt P51449); assay: Luciferase reporter gene assay of inhibitory effect against RORγ transcriptional activity (GAL4-hRORγ plasmid in CHO cells); format: cell-based
T1 construct: human, NM_005060.3 and from Ser253 to Lys518; expressed in transfected cells; host or cells: CHO cells (transient co-transfection with pG5-Luc reporter)
T1 sequence (P51449 253-518): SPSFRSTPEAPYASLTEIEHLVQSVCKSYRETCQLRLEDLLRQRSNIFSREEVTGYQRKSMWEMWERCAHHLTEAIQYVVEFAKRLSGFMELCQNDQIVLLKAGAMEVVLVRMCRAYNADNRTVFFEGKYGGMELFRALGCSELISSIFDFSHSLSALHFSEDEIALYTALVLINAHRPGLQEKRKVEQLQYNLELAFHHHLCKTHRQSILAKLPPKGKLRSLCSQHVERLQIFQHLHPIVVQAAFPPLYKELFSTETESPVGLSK

mouse RORγ = target: T2, mouse RORγ (Mus musculus, UniProt P51450); assay: Luciferase reporter gene assay of inhibitory effect against RORγ transcriptional activity (GAL4-mRORγ plasmid in CHO cells); format: cell-based
T2 construct: mouse, NM_011281.2 and from Ile251 to Lys516; expressed in transfected cells; host or cells: CHO cells (transient co-transfection with pG5-Luc reporter)
T2 sequence (P51450 251-516): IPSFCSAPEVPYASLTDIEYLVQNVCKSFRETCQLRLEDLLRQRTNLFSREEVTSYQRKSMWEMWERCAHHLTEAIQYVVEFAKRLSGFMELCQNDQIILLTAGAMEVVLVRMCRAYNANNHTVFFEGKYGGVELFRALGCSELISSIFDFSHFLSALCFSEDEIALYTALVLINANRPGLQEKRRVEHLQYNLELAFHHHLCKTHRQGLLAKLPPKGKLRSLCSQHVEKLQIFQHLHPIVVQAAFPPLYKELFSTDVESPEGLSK
In short: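 CHO cells transiently co-transfected with GAL4-mouse RORγ LBD (Ile251–Lys516) and GAL4-dependent luciferase reporter; eight compound concentrations, 0.1% DMSO, 2 days at 37 °C. Luminescence as %-of-vehicle control; EC50 by curve fit, cytotoxic concentrations excluded.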

| Compound | EC50 (human RORγ; read-out: LUC EC50 (μM) hRORg) [µM] | EC50 (mouse RORγ; read-out: LUC EC50 (μM) mRORg) [µM] | EC50 (human RORγ; read-out: LUC EC50 hRORg) [µM] | EC50 (mouse RORγ; read-out: LUC EC50 mRORg) [µM] |
| --- | --- | --- | --- | --- |
| Cc1ccc(NC(=O)CCc2nnc([C@H]3C[C@@H](CC4CCCC4)C3)n2C2CC2)c(C)c1 [Example F-424] | < 3 | < 3 |  |  |
| Cc1ccc(NC(=O)CCc2nnc([C@H]3C[C@H](CC(C)(C)C)C3)n2C2CC2)c(C)c1 [Example F-425] | < 3 | < 3 |  |  |
| Cc1ccc(NC(=O)CCc2nnc([C@H]3C[C@@H](CC(C)(C)C)C3)n2C2CC2)c(C)c1 [Example F-426] | < 3 | < 3 |  |  |
| CCOC(=O)CO[C@@H](CC(=O)Nc1ccc(C)cc1C)c1nnc([C@H]2C[C@@H](CC(C)C)C2)n1C1CC1 [Example F-433] | < 3 | < 3 |  |  |
| Cc1ccc(NC(=O)C[C@H](OCCO)c2nnc([C@H]3C[C@@H](CC(C)C)C3)n2C2CC2)c(C)c1 [Example F-434] | < 3 | < 3 |  |  |
| Cc1ccc(NC(=O)CCc2nnc(-c3ccc(OC(C)C)cc3)n2C2CC2)c(C)c1 [Example F-441] | > 3 | < 3 |  |  |
| Cc1ccc(NC(=O)CCc2nnc(-c3ccc(O)cc3)n2C2CC2)c(C)c1 [Example F-442] | > 3 | > 3 |  |  |
| Cc1ccc(NC(=O)CCc2nnn(CCC3CCCCC3)c2C2CC2)c(C)c1 [Example F-443] | < 3 | < 3 |  |  |
| Cc1ccc(NC(=O)CCc2nnc([C@H]3C[C@@H](CCC(C)C)C3)n2C2CC2)c(C)c1 [Example F-444] | < 3 | < 3 |  |  |
| CCC1(CC)CC(c2nnc(CCC(=O)Nc3ccc(C)cc3C)n2C2CC2)C1 [Example F-451] | < 3 | < 3 |  |  |
| Cc1ccc(NC(=O)C[C@H](CCOCc2ccccc2)c2nnc([C@H]3C[C@@H](CC(C)C)C3)n2C2CC2)c(C)c1 [Example F-456] | < 3 | < 3 |  |  |
| Cc1ccc(NC(=O)C[C@H](CCO)c2nnc(-c3cc(CC(C)C)on3)n2C2CC2)c(C)c1 [Example F-457] | < 3 | > 3 |  |  |
| Cc1ccc(NC(=O)C[C@@H](CCO)c2nnc(-c3cc(CC(C)C)on3)n2C2CC2)c(C)c1 [Example F-458] | > 3 | > 3 |  |  |
| C=CCOc1ccc(-c2nnc(CCC(=O)Nc3ccc(C)cc3C)n2C2CC2)cc1 [Example F-460] | > 3 | > 3 |  |  |
| CC(=O)N1C[C@H](C(=O)Nc2ccc(C)cc2C)[C@@H](c2nnc([C@H]3C[C@@H](CC(C)(C)C)C3)n2C2CC2)C1 [Example F-461] | < 3 | < 3 |  |  |
| CC(=O)N1C[C@@H](C(=O)Nc2ccc(C)cc2C)[C@H](c2nnc([C@H]3C[C@@H](CC(C)(C)C)C3)n2C2CC2)C1 [Example F-462] | < 3 | < 3 |  |  |
| CCCOc1ccc(-c2nnc(CCC(=O)Nc3ccc(C)cc3C)n2C2CC2)cc1 [Example F-463] | > 3 | < 3 |  |  |
| Cc1ccc(NC(=O)C[C@@H](CC#N)c2nnc([C@H]3C[C@@H](CC(C)C)C3)n2C2CC2)c(C)c1 [Example F-464] | > 3 | < 3 |  |  |
| Cc1ccc(NC(=O)C[C@H](CC#N)c2nnc([C@H]3C[C@@H](CC(C)C)C3)n2C2CC2)c(C)c1 [Example F-465] | < 3 | < 3 |  |  |
| CC(=O)N1CC([C@@H](CC(=O)Nc2ccc(C)cc2C)c2nnc([C@H]3C[C@@H](CC(C)C)C3)n2C2CC2)C1 [Example F-466] | < 3 | < 3 |  |  |
| CC(=O)N1CC([C@H](CC(=O)Nc2ccc(C)cc2C)c2nnc([C@H]3C[C@@H](CC(C)C)C3)n2C2CC2)C1 [Example F-467] | > 3 | > 3 |  |  |
| Cc1ccc(NC(=O)[C@H]2C[C@@H](O)C[C@@H]2c2nnc([C@H]3C[C@@H](CC(C)C)C3)n2C2CC2)c(C)c1 [Example F-470] | < 3 | < 3 |  |  |
| Cc1ccc(NC(=O)[C@@H]2C[C@H](O)C[C@H]2c2nnc([C@H]3C[C@@H](CC(C)C)C3)n2C2CC2)c(C)c1 [Example F-471] | > 3 | > 3 |  |  |
| CC(=O)N1C[C@H](C(=O)Nc2ccc(C)cc2C)[C@@H](c2nnc(C3CC4(CCCCC4)C3)n2C2CC2)C1 [Example F-473] | < 3 | < 3 |  |  |
| CC(=O)N1C[C@@H](C(=O)Nc2ccc(C)cc2C)[C@H](c2nnc(C3CC4(CCCCC4)C3)n2C2CC2)C1 [Example F-474] | > 3 | < 3 |  |  |

| Compound | EC50 (human RORγ; read-out: LUC EC50 (μM) hRORg) [µM] | EC50 (mouse RORγ; read-out: LUC EC50 (μM) mRORg) [µM] | EC50 (human RORγ; read-out: LUC EC50 hRORg) [µM] | EC50 (mouse RORγ; read-out: LUC EC50 mRORg) [µM] |
| --- | --- | --- | --- | --- |
| Cc1ccc(NC(=O)C[C@H](Cc2nccs2)c2nnc([C@H]3C[C@@H](CC(C)C)C3)n2C2CC2)c(C)c1 [Example F-475] | < 3 | < 3 |  |  |
| Cc1ccc(NC(=O)C[C@@H](Cc2nccs2)c2nnc([C@H]3C[C@@H](CC(C)C)C3)n2C2CC2)c(C)c1 [Example F-476] | < 3 | < 3 |  |  |
| Cc1ccc(NC(=O)C[C@H](CN2CC(=O)NC2=O)c2nnc([C@H]3C[C@@H](CC(C)C)C3)n2C2CC2)c(C)c1 [Example F-479] | < 3 | < 3 |  |  |
| CNC(=O)CO[C@@H](CC(=O)Nc1ccc(C)cc1C)c1nnc([C@H]2C[C@@H](CC(C)C)C2)n1C1CC1 [Example F-480] | < 3 | < 3 |  |  |
| COCC(=O)NC[C@@H](CC(=O)Nc1ccc(C)cc1C)c1nnc([C@H]2C[C@@H](CC(C)C)C2)n1C1CC1 [Example F-487] | < 3 | < 3 |  |  |
| Cc1ccc(NC(=O)C(C)C(CCOCc2ccccc2)c2nnc([C@H]3C[C@@H](CC(C)C)C3)n2C2CC2)c(C)c1 (stereo partly shown) [Example F-489] | > 3 | < 3 |  |  |
| Cc1ccc(NC(=O)CCc2noc(CCC3CCCCC3)c2C2CC2)c(C)c1 [Example F-494] | < 3 | < 3 |  |  |
| CCC(CC)C[C@H]1C[C@H](c2nnc(CCC(=O)Nc3ccc(C)cc3C)n2C2CC2)C1 [Example F-495] | < 3 | < 3 |  |  |
| CCC(CC)C[C@H]1C[C@@H](c2nnc(CCC(=O)Nc3ccc(C)cc3C)n2C2CC2)C1 [Example F-496] |  |  | < 3 | < 3 |
| CC(=O)N1C[C@H](C(=O)Nc2ccc(C)cc2C)[C@@H](c2nnc(-c3cc(CC(C)C)no3)n2C2CC2)C1 [Example F-506] |  |  | < 3 | < 3 |
| CC(=O)N1C[C@@H](C(=O)Nc2ccc(C)cc2C)[C@H](c2nnc(-c3cc(CC(C)C)no3)n2C2CC2)C1 [Example F-507] |  |  | > 3 | > 3 |
| Cc1ccc(NC(=O)C[C@@H](CCCO)c2nnc([C@H]3C[C@@H](CC(C)C)C3)n2C2CC2)c(C)c1 [Example F-510] |  |  | > 3 | > 3 |
| Cc1ccc(NC(=O)C[C@H](CCCO)c2nnc([C@H]3C[C@@H](CC(C)C)C3)n2C2CC2)c(C)c1 [Example F-511] |  |  | < 3 | < 3 |
| CC(C)C[C@H]1C[C@@H](c2nnc([C@@H](CCO)CC(=O)Nc3ccc(F)cc3Cl)n2C2CC2)C1 [Example F-513] |  |  | < 3 | < 3 |
| Cc1ccc(NC(=O)C[C@@H](c2nnc([C@H]3C[C@@H](CC(C)C)C3)n2C2CC2)N(C)C)c(C)c1 [Example F-516] |  |  | < 3 | < 3 |
| CC(C)C[C@H]1C[C@@H](c2nnc([C@@H](CCO)CC(=O)Nc3ccc(Cl)cc3F)n2C2CC2)C1 [Example F-519] |  |  | < 3 | < 3 |
| COc1cc(NC(=O)C[C@H](CCO)c2nnc([C@H]3C[C@@H](CC(C)C)C3)n2C2CC2)ccc1Cl [Example F-520] |  |  | < 3 | < 3 |
| CC(C)C[C@H]1C[C@@H](c2nnc([C@@H](CCO)CC(=O)NCc3ccc(Cl)cc3Cl)n2C2CC2)C1 [Example F-521] |  |  | < 3 | < 3 |
| CC(C)C[C@H]1C[C@@H](c2nnc([C@@H](CCO)CC(=O)Nc3ccc(C(F)(F)F)cc3C(F)(F)F)n2C2CC2)C1 [Example F-524] |  |  | < 3 | < 3 |
| Cc1cc(Cl)ccc1NC(=O)C[C@H](CCO)c1nnc([C@H]2C[C@@H](CC(C)C)C2)n1C1CC1 [Example F-525] |  |  | < 3 | < 3 |
| COc1cc(NC(=O)C[C@H](CCO)c2nnc([C@H]3C[C@@H](CC(C)C)C3)n2C2CC2)ccc1C [Example F-526] |  |  | < 3 | < 3 |
| CCC[C@@H](CC(=O)Nc1ccc(C)cc1C)c1nnc(CCCC(C)(C)C)n1C1CC1 [Example F-528] |  |  | < 3 | < 3 |
| Cc1ccc(NC(=O)C[C@@H](c2nnc([C@H]3C[C@@H](CC(C)C)C3)n2C2CC2)N(C)C(=O)C(C)C)c(C)c1 [Example F-530] |  |  | < 3 | < 3 |
| COc1cc(C)ccc1CNC(=O)C[C@H](CCO)c1nnc([C@H]2C[C@@H](CC(C)C)C2)n1C1CC1 [Example F-535] |  |  | < 3 | < 3 |
| Cc1ccc(NC(=O)C[C@H](NC(C)C)c2nnc([C@H]3C[C@@H](CC(C)C)C3)n2C2CC2)c(C)c1 [Example F-536] |  |  | < 3 | < 3 |
